Data reported in US10266567B2, “Peptides and compositions comprising same and uses thereof in the treatment of diseases” (Ariel-University Research and Development Company Ltd., priority 2015, dated 2019).
“Also recorded” adds a separate entry of the source. Bridge positions count the residues as written; N and C are the ends. Ends that are not written are not given here.

Experiments:
B16-F10 melanoma cells = test: Metastatic melanoma mice model using B16F10 cells; assay type: in vivo, C57BL/6 mice
Description: Metastatic melanoma mice model using B16F10 cells. Murine B16F10 cells grown in RPMI were harvested by trypsinization and washed with PBS. The cells were counted and resuspended in PBS to final concentrations of 1.0×10^5 cells/mL and were maintained at 4° C. for immediate i.v inoculation into the tail vein of C57BL6 male mice (Harlan Labs). Next day, following tumor cell inoculation, these animals received i.p. injection of ALOS peptide or saline. Injections were performed daily throughout the working week. Mice were weighed daily on the day of injection.
For analysis of the peptides' effect on melanoma nodule formation all mice were sacrificed 18 days following the i.v. injection. Organs were dissected analyzed visually. The lungs of sacrificed mice were rinsed in saline and fixed with Bouin's solution. The total number of visible nodules on the lung surface per animal was counted.
For analysis of the peptides' effect on survival of melanoma cell-inoculated mice, animals were observed several times a week for signs of lethargy such as weight loss, hunched position and epilepsy. In order to lessen suffering, when these symptoms occurred, mice were euthanized with cervical dislocation after CO2 anesthesia. Survival time was recorded and long-term survivors were defined as animals surviving longer than 3 times the median survival of non-treated animals.
ALOS3 and ALOS4 block melanoma growth in metastatic melanoma mice model: An important clinical problem of malignant tumors is that lethality is mostly attributed to metastasis of the primary neoplastic cells. Complete eradication of the primary malignant cells is usually limited, due to location of the tumor, spread to distant organs and severe side effects caused by treatment. The effects of ALOS 3 and 4 on artificial metastasis, using highly metastatic melanoma B16-F10 cells was studied. 5×10^4 cells of B16-F10/0.2 ml/mouse were injected into the tail vein of 8 weeks old C57BL/6 mice. […] 18 days later the mice were sacrificed, lungs were dissected and the total number of visible nodules on the lung surface was counted. […]

[1] = Elevated Plus Maze (EPM) test in metastatic melanoma mice; assay type: in vivo; details: 0.3 mg/kg chronic, vs control, p<0.01
Description: The EPM apparatus comprises two closed (10 cm×45 cm×40 cm) and two open (10 cm×45 cm) arms that extend from a common central platform (10 cm×10 cm). The black apparatus is elevated to a height of 60 cm above floor level. The tests were conducted at the same time of the day (10.00-12.00 h) during the period of illumination in the mice's colony room. For habituation, all animals were placed in the experimental room one hour prior to the test. Each animal was placed at the center of the maze, facing one of the closed arms. Each mouse spent a five minute session in the EPM, during which the number of entries into open and closed arms as well as time spent in the open and closed arms were video scored.

CAPSPSRLC (disulfide 1-9 (inferred)) [ALOS3]
Survival of metastatic melanoma mice (B16-F10 melanoma cells; 0.3 mg/kg daily i.p., 5×10^3 B16-F10 cells i.v., vs saline): significantly increased the survival; also recorded: significantly delayed animals' death
Number of metastatic melanoma sites (visible nodules) in the lungs (B16-F10 melanoma cells; 0.3 mg/kg daily i.p., 5×10^4 B16-F10 cells i.v., day 18): significantly blocked the number of metastatic melanoma sites in the lungs
Animals' weight during treatment course (B16-F10 melanoma cells; metastatic melanoma mice, ALOS vs saline): did not show weight loss
EPM performance (ratio of time spent in open arms to total time), anxiolytic effect [1]: significantly increased the performance of the mice; also recorded: exerted anxiolytic effect
